Measured values from paper PMC11173618, “C2-Symmetrical Terphenyl Derivatives as Small Molecule Inhibitors of Programmed Cell Death 1/Programmed Death Ligand 1 Protein–Protein Interaction” (Molecules, 2024).

Biological target: T1, PD-1/PD-L1 complex (Homo sapiens, UniProt Q9NZQ7)
T1 construct: purchased cis-bio
Assay: HTRF assay of PD-1/PD-L1 complex inhibition (cis-bio kit)
Assay type: binding
Conditions: for inhibition at 0.5 µM / inhibition at 5 µM: 1 h, scouting mode, 5 nM PD-L1, 50 nM PD-1, read-out: HTRF [%] (percentage of dissociated PD-1/PD-L1 complex); for inhibition at 0.5 µM: inhibitor 0.5 µM; for inhibition at 5 µM: inhibitor 5 µM
Experimental: All synthesized molecules were tested in the homogeneous time-resolved fluorescence (HTRF) assay to assess their activity as inhibitors of the PD-1/PD-L1 complex (Table 1, Table 2 and Table 3). This evaluation was conducted in scouting modes, employing concentrations of 5 μM and 0.5 μM. Based on the obtained measurements, the IC50 values were estimated for each tested compound.
The certified cis-bio assay kit was used to perform the HTRF assay. Following the standard protocol, the measurement was carried out at a 20 µL final volume with a 5 nM concentration of PD-L1 and a 50 nM concentration of PD-1 in the final formulation. […] The plate was incubated for 1 h and then read on an HTRF-certified Tecan Spark 20M microplate reader. Output data were subjected to background subtraction on negative control (without PD-1) and normalization in correlation to the positive control (without inhibitor) and were then averaged. The resulting data points were then fitted with Hill’s equation to generate IC50 using Mathematica 12. […]

T1 sequence (Q9NZQ7 19-238 limits assumed, one chain of several): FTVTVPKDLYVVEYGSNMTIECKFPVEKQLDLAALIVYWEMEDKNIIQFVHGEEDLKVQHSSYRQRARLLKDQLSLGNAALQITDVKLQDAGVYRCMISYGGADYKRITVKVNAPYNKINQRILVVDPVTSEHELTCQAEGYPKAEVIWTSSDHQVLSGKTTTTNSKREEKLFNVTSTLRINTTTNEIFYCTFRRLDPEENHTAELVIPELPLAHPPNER

Row | SMILES | inhibition at 0.5 µM [%] | inhibition at 5 µM [%] | IC50 Estimated (estimated from scouting data (5 and 0.5 µM) by translation of the Hill fit of 7b, 7j, 7m)
1 | COc1cccc(CNCCNC(C)=O)c1OCc1ccccc1-c1cc(C)cc(-c2ccccc2COc2c(CNCCNC(C)=O)cccc2OC)c1 [Compound 5a, N,N’-(((((((5′-methyl-[1,1′:3′,1′′-terphenyl]-2,2′′-diyl)bis(methylene))bis(oxy))bis(3-methoxy-2,1-phenylene))bis(methylene))bis(azanediyl))bis(ethane-2,1-diyl))diacetamide] | 84.3 ± 13.1 | 78.4 ± 6.4 | –
2 | CC(=O)NCCNCc1cc(F)c(OCc2ccc(-c3cccc(-c4ccc(COc5cc(F)c(CNCCNC(C)=O)cc5F)c(C)c4)c3C)cc2C)cc1F [Compound 7h, N,N’-(((((((2′,3,3′′-trimethyl-[1,1′:3′,1′′-terphenyl]-4,4′′-diyl)bis(methylene))bis(oxy))bis(2,5-difluoro-4,1-phenylene))bis(methylene))bis(azanediyl))bis(ethane-2,1-diyl))diacetamide] | 84.1 ± 26.4 | 69 ± 0.9 | –
3 | COc1cc(-c2cccc(-c3ccc(COc4ccc(CNCCO)cc4OC)c(OC)c3)c2C)ccc1COc1ccc(CNCCO)cc1OC [Compound 7b, 2,2′-((((((3,3′′-dimethoxy-2′-methyl-[1,1′:3′,1′′-terphenyl]-4,4′′-diyl)bis(methylene))bis(oxy))bis(3-methoxy-4,1-phenylene))bis(methylene))bis(azanediyl))bis(ethan-1-ol)] | 60.9 ± 3.9 | 11.9 ± 1 | –
4 | Cc1c(-c2cccc(COc3cccc(CNCCO)c3Br)c2)cccc1-c1cccc(COc2cccc(CNCCO)c2Br)c1 [Compound 8a, 2,2′-((((((2′-methyl-[1,1′:3′,1′′-terphenyl]-3,3′′-diyl)bis(methylene))bis(oxy))bis(2-bromo-3,1-phenylene))bis(methylene))bis(azanediyl))bis(ethan-1-ol)] | 94.6 ± 0.1 | 23 ± 0.1 | –
5 | COc1cc(CNCCNC(C)=O)ccc1OCc1ccc(-c2cccc(-c3ccc(COc4ccc(CNCCNC(C)=O)cc4OC)cc3C)c2C)c(C)c1 [Compound 7c, N,N’-(((((((2,2′,2′′-trimethyl-[1,1′:3′,1′′-terphenyl]-4,4′′-diyl)bis(methylene))bis(oxy))bis(3-methoxy-4,1-phenylene))bis(methylene))bis(azanediyl))bis(ethane-2,1-diyl))diacetamide] | 82.1 ± 8 | 77.1 ± 0.7 | –
6 | COc1cc(CNC(CO)CO)ccc1OCc1ccc(-c2cccc(-c3ccc(COc4ccc(CNC(CO)CO)cc4OC)c(C)c3)c2C)cc1C [Compound 7g, 2,2′-((((((2′,3,3′′-trimethyl-[1,1′:3′,1′′-terphenyl]-4,4′′-diyl)bis(methylene))bis(oxy))bis(3-methoxy-4,1-phenylene))bis(methylene))bis(azanediyl))bis(propane-1,3-diol)] | 94.5 ± 18.1 | 53.7 ± 1.7 | –
7 | CC(=O)NCCNCc1cccc(OCc2cccc(-c3cc(C)cc(-c4cccc(COc5cccc(CNCCNC(C)=O)c5)c4F)c3)c2F)c1 [Compound 4d, N,N’-(((((((2,2′′-difluoro-5′-methyl-[1,1′:3′,1′′-terphenyl]-3,3′′-diyl)bis(methylene))bis(oxy))bis(3,1-phenylene))bis(methylene))bis(azanediyl))bis(ethane-2,1-diyl))diacetamide] | 89.9 ± 19.8 | 22.5 ± 9.17 | –
8 | COc1cc(-c2cc(C)cc(-c3ccc(COc4c(CNCCNC(C)=O)cccc4OC)c(OC)c3)c2)ccc1COc1c(CNCCNC(C)=O)cccc1OC [Compound 6a, N,N’-(((((((3,3′′-dimethoxy-5′-methyl-[1,1′:3′,1′′-terphenyl]-4,4′′-diyl)bis(methylene))bis(oxy))bis(3-methoxy-2,1-phenylene))bis(methylene))bis(azanediyl))bis(ethane-2,1-diyl))diacetamide] | 86.1 ± 4.5 | 59.2 ± 2.6 | –
9 | COc1cc(CNCCNC(C)=O)ccc1OCc1ccc(-c2cccc(-c3ccc(COc4ccc(CNCCNC(C)=O)cc4OC)c(C)c3)c2C)cc1C [Compound 7e, N,N’-(((((((2′,3,3′′-trimethyl-[1,1′:3′,1′′-terphenyl]-4,4′′-diyl)bis(methylene))bis(oxy))bis(3-methoxy-4,1-phenylene))bis(methylene))bis(azanediyl))bis(ethane-2,1-diyl))diacetamide] | 93.8 ± 3.6 | 55.3 ± 13.4 | –
10 | CC(=O)NCCNCc1cccc(OCc2cccc(-c3cc(C)cc(-c4cccc(COc5cccc(CNCCNC(C)=O)c5)c4)c3)c2)c1 [Compound 4a, N,N’-(((((((5′-methyl-[1,1′:3′,1′′-terphenyl]-3,3′′-diyl)bis(methylene))bis(oxy))bis(3,1-phenylene))bis(methylene))bis(azanediyl))bis(ethane-2,1-diyl))diacetamide] | 80.4 ± 18.8 | 56.8 ± 15.4 | –
11 | CC(=O)NCCNCc1cccc(OCc2cccc(-c3cc(C)cc(-c4cccc(COc5cccc(CNCCNC(C)=O)c5Br)c4)c3)c2)c1Br [Compound 4c, N,N’-(((((((5′-methyl-[1,1′:3′,1′′-terphenyl]-3,3′′-diyl)bis(methylene))bis(oxy))bis(2-bromo-3,1-phenylene))bis(methylene))bis(azanediyl))bis(ethane-2,1-diyl))diacetamide] | 88.6 ± 14 | 70.8 ± 18.8 | –
12 | Cc1cc(-c2cccc(-c3ccc(COc4cc(F)c(CNCCO)cc4F)c(C)c3)c2C)ccc1COc1cc(F)c(CNCCO)cc1F [Compound 7i, 2,2′-((((((2′,3,3′′-trimethyl-[1,1′:3′,1′′-terphenyl]-4,4′′-diyl)bis(methylene))bis(oxy))bis(2,5-difluoro-4,1-phenylene))bis(methylene))bis(azanediyl))bis(ethan-1-ol)] | 78.5 ± 7.3 | 42.2 ± 7.2 | –
13 | CC(=O)NCCNCc1cccc(OCc2cccc(-c3cc(C)cc(-c4cccc(COc5cccc(CNCCNC(C)=O)c5Br)c4C)c3)c2C)c1Br [Compound 4e, N,N’-(((((((2,2′′,5′-trimethyl-[1,1′:3′,1′′-terphenyl]-3,3′′-diyl)bis(methylene))bis(oxy))bis(2-bromo-3,1-phenylene))bis(methylene))bis(azanediyl))bis(ethane-2,1-diyl))diacetamide] | 93.9 ± 5.5 | 94.2 ± 2.3 | not active
14 | COc1cccc(CNCCO)c1OCc1cccc(-c2cccc(-c3cccc(COc4c(CNCCO)cccc4OC)c3)c2C)c1 [Compound 8c, 2,2′-((((((2′-methyl-[1,1′:3′,1′′-terphenyl]-3,3′′-diyl)bis(methylene))bis(oxy))bis(3-methoxy-2,1-phenylene))bis(methylene))bis(azanediyl))bis(ethan-1-ol)] | 104 ± 3.3 | 61.1 ± 4.5 | –
15 | CC(=O)NCCNCc1cccc(OCc2ccc(-c3cccc(-c4ccc(COc5cccc(CNCCNC(C)=O)c5Br)cc4)c3C)cc2)c1Br [Compound 7j, N,N’-(((((((2′-methyl-[1,1′:3′,1′′-terphenyl]-4,4′′-diyl)bis(methylene))bis(oxy))bis(2-bromo-3,1-phenylene))bis(methylene))bis(azanediyl))bis(ethane-2,1-diyl))diacetamide] | 40.4 ± 1.5 | 11.1 ± 0.3 | –
16 | COc1cc(CNCCO)ccc1OCc1ccc(-c2cccc(-c3ccc(COc4ccc(CNCCO)cc4OC)cc3C)c2C)c(C)c1 [Compound 7d, 2,2′-((((((2,2′,2′′-trimethyl-[1,1′:3′,1′′-terphenyl]-4,4′′-diyl)bis(methylene))bis(oxy))bis(3-methoxy-4,1-phenylene))bis(methylene))bis(azanediyl))bis(ethan-1-ol)] | 86.1 ± 12.7 | 35.7 ± 3.3 | –
17 | COc1cc(-c2cccc(-c3ccc(COc4ccc(CNCCNC(C)=O)cc4OC)c(OC)c3)c2C)ccc1COc1ccc(CNCCNC(C)=O)cc1OC [Compound 7a, N,N’-(((((((3,3′′-dimethoxy-2′-methyl-[1,1′:3′,1′′-terphenyl]-4,4′′-diyl)bis(methylene))bis(oxy))bis(3-methoxy-4,1-phenylene))bis(methylene))bis(azanediyl))bis(ethane-2,1-diyl))diacetamide] | 72.5 ± 8.1 | 23.8 ± 0.3 | –
18 | COc1cc(CNCCO)ccc1OCc1ccc(-c2cccc(-c3ccc(COc4ccc(CNCCO)cc4OC)c(C)c3)c2C)cc1C [Compound 7f, 2,2′-((((((2′,3,3′′-trimethyl-[1,1′:3′,1′′-terphenyl]-4,4′′-diyl)bis(methylene))bis(oxy))bis(3-methoxy-4,1-phenylene))bis(methylene))bis(azanediyl))bis(ethan-1-ol)] | 93.1 ± 17.4 | 46.4 ± 9.6 | –
19 | CC(=O)NCCNCc1cc(F)c(OCc2cccc(-c3cc(C)cc(-c4cccc(COc5cc(F)c(CNCCNC(C)=O)cc5F)c4C)c3)c2C)cc1F [Compound 4f, N,N’-(((((((2,2′′,5′-trimethyl-[1,1′:3′,1′′-terphenyl]-3,3′′-diyl)bis(methylene))bis(oxy))bis(2,5-difluoro-4,1-phenylene))bis(methylene))bis(azanediyl))bis(ethane-2,1-diyl))diacetamide] | 85.7 ± 10.9 | 28.2 ± 1.5 | –
